Source: patent publication US8673587B2, “Methods for identifying allosteric and other novel acyl-coenzyme A:cholesterol acyltransferase inhibitors” (Trustees of Dartmouth College, priority 2010, dated 2014)

How the values were obtained:
[1] = molecular target: T1, histidine-tagged recombinant human ACAT1 (Homo sapiens, UniProt P35610, M1L); test: Steroid (pregnenolone/DHEA/E2) esterification in mixed micelles, ACAT1 as enzyme source; assay type: biochemical; settings: for activation of pregnenolone esterification by sterol: sterol at 0.32 mM, 1 μM [3H]-pregnenolone; for ACAT1 substrate activity: 1 μM [3H]-steroid
T1 construct: hACAT-1 cDNA (nucleotide residues 1397-3046, a total of 550 amino acids); made in house; partially purified on a nickel column
T1 sequence (P35610 1-550 M1L): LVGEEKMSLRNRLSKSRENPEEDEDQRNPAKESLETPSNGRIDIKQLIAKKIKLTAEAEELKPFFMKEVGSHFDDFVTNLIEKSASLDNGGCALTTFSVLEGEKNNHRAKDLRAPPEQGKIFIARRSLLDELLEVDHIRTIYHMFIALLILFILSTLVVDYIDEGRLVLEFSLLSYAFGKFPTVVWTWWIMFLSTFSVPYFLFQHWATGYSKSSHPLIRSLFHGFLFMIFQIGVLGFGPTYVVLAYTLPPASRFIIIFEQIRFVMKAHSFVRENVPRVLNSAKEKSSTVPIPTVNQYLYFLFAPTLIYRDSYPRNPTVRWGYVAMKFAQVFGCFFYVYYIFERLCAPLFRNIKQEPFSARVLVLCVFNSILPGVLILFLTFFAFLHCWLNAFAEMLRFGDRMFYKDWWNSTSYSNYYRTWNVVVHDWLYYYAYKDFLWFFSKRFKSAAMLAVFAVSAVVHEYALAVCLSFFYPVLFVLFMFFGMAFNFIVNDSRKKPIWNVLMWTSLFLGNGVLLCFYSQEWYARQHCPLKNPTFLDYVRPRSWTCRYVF
Description: (§1) The method of the present invention was developed in experiments using a mixed micelle enzyme assay system. […] A candidate ACAT inhibitor is an allosteric inhibitor if it is shown in the method of the present invention to inhibit cholesterol-dependent pregnenolone esterification but not to inhibit the basal pregnenolone esterification when cholesterol is absent in the assay mixture. […] In the assay system of the present invention, the source of ACAT was histidine-tagged recombinant human ACAT1 or human ACAT2, stably expressed in Chinese hamster ovary (CHO) cells that lack endogenous ACAT activity. However, one of skill in the art could employ other suitable mammalian cell systems as needed. The enzyme preparations used in the present method were partially purified through the use of nickel column chromatography, as described previously (Liu et al. 2005. Biochem. J. 391:389-397), using cells that stably expressing histidine-tagged recombinant human ACAT1 or human ACAT2 as the enzyme source.
(§2) In developing the method of the present invention, a series of experiments was performed. Pregnenolone is one compound that contains the classical A, B, C, D steroid rings as well as a 3 beta-OH moiety. Based on its structure, pregnenolone may be an ACAT substrate. However, this possibility had not previously been tested experimentally. In the present invention, the activity of pregnenolone was tested by using radiolabeled pregnenolone ([^3H]-pregnenolone) in a mixed micelle enzyme assay mixture that contained the detergent taurocholate (or CHAPS), phosphatidylcholine, and oleyl-coenzyme A bound to bovine serum albumin (BSA). The enzyme used was histidine-tagged human ACAT1 or human ACAT2. The esterification of pregnenolone (i.e., formation of pregnenolone oleate) was monitored by performing lipid extraction to isolate [^3H]-pregnenolone oleate and [^3H]-pregnenolone. [^3H]-pregnenolone oleate was then separated from [^3H]-pregnenolone by using conventional thin-layer chromatography. Levels of [^3H]-pregnenolone oleate formed was measured using a scintillation counter. […] Thus, using ACAT1 as the enzyme source, the esterification of DHEA was examined (FIG. 1C).
A pregnenolone substrate saturation curve was then constructed, with or without addition of cholesterol to the assay mixture, using ACAT1 as the enzyme source (FIG. 2A). […] Then, a DHEA substrate saturation curve was constructed, with cholesterol present.
Further experiments were performed to examine the effect of adding various non-oxysterols, at a concentration of 0.32 mM, on pregnenolone esterification in vitro, with ACAT1 as the enzyme source.
(§3) To assay the enzyme, the pregnenolone/detergent/PC micelles and the cholesterol/detergent/PC micelles were prepared individually as follows: the radiolabeled pregnenolone/PC mixture or the cholesterol/PC mixture was prepared as described previously (Shi et al. 1989. Biochim. Biophys. Acta 982:187-195) and lyophilized to remove residual organic solvents. After lyophilization, the detergent sodium taurocholate (or other detergent such as CHAPS) in Buffer A was added to reach a final concentration of 10 mg/ml. The mixture was purged with nitrogen, followed by sonication until this mixture was clear. The pregnenolone/PC micelles were mixed with the cholesterol/PC micelles such that the cholesterol concentration is at 0 mM or at 0.32 mM, and the radioactive pregnenolone concentration is at 1 μM (specific activity 20 Ci/mmol).

[2] = molecular target: T2, HisACAT1/FLAG (recombinant hACAT1) (Homo sapiens, UniProt P35610, M1L); test: Ligand binding by change in intrinsic (tryptophan) fluorescence of HisACAT1/FLAG; settings: for maximal increase in fluorescence peak height with respect to unliganded ACAT1 protein: excitation 295 nm, peak 330 nm
T2 construct: hACAT1 contains 550 amino acids; made in house
T2 sequence (P35610 1-550 M1L): T1 sequence (P35610 1-550 M1L)
Description: Fluorescence measurements were generated using an ISS PC1 photocounting fluorescence spectrophotometer (model 90095). This instrument has continuously reproducible slits ranging from 0.4 to 32 nm band-pass. The excitation slit width was set at 2 nm. The wavelength for excitation was set at 295 nm in order to minimize the contribution of tyrosine residues to the fluorescence. Purified HisACAT1/FLAG was concentrated using 30K AMICON centrifugal filters such that the final concentration of the protein was 100-200 ng/μL (1.5-3 μM). Purified protein was stored at −80° C. until used. Unless stated otherwise, the fluorescence measurements were performed at pH 7.8 with 50 mM potassium phosphate, 0.5M KCl, and 8.13 mM CHAPS. Sterol (cholesterol, epicholesterol, coprostanol, and epicoprostanol) was prepared as CHAPS/PC/sterol mixed micelles (with CHAPS at 8.13 mM, PC at 4 mM, and with varying concentrations of sterols as indicated) and stored at 20° C. in the dark until usage. The fatty acyl-CoAs were dissolved in 20 mM sodium acetate at pH 6.4 as a 2 mM stock and stored at −80° C. until used. Before the experiment started, all reagents were kept on ice in the dark. To begin the experiment, 50 μL of mixed micelles without or with sterols was added into a HELLMA microcuvette with 3 mm light path. Twenty-five microliters of ACAT1 protein (in 8.13 mM CHAPS and 0.5 M KCl) was then added and rapidly mixed. Fluorescence was monitored within 15 seconds of adding the enzyme. The sample compartment of the instrument was maintained at 20° C. The fluorescence emission spectrum was scanned in 2 minutes between 310 and 410 nm. The differences in fluorescence intensity at 10 intervals within 325-335 nm were averaged in order to calculate the ΔF value between the ligated protein vs that of the unligated protein.
Binding studies were subsequently conducted by monitoring the effect of increasing concentrations of oleoyl-CoA on the intrinsic fluorescence of HisACAT1/FLAG. […] However, the maximal change in the peak of the spectrum was much smaller (5% with respect to the unliganded protein). […] The data was analyzed for a simple bimolecular dissociation equilibrium using the PRISM program.
Binding experiments were subsequently performed by monitoring the effect of increasing concentrations of cholesterol, from 10 to 600 μM, on the intrinsic fluorescence of HisACAT1/FLAG. […] It was estimated that the cholesterol concentration that caused half-maximal spectral change was 35 μM. […] The changes in the intrinsic fluorescence of ACAT1 caused by cholesterol, epicholesterol, coprostanol, or epicoprostanol as the ligand were also compared.

[3] = molecular target: T3, histidine-tagged recombinant human ACAT2 (Homo sapiens, UniProt O75908); test: Pregnenolone esterification in mixed micelles, ACAT2 as enzyme source; assay type: biochemical; settings: ACAT2; for activation of pregnenolone esterification by sterol: sterol at 0.32 mM, 1 μM [3H]-pregnenolone
T3 construct: made in house; partially purified on a nickel column
T3 sequence (O75908 1-522): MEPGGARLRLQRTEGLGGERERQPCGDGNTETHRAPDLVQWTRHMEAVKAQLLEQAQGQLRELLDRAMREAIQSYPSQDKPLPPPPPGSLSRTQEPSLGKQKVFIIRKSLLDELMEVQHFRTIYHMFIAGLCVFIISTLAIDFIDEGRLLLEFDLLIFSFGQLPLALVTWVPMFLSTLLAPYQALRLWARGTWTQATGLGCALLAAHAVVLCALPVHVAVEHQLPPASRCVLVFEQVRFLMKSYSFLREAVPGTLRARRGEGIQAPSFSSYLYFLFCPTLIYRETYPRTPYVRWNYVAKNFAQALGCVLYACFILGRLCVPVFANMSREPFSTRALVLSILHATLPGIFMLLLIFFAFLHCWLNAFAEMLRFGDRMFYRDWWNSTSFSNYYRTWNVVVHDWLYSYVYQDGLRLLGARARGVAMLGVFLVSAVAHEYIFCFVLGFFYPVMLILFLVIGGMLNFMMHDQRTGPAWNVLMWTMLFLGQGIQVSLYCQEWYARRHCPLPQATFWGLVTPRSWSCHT
Description: as §1, §2, §3

[4] = tested on: amyloid precursor protein (APP); settings: cited from earlier work

For `CC(C)CCC[C@@H](C)[C@H]1CC[C@H]2[C@@H]3[C@H](O)C=C4C[C@@H](O)CC[C@]4(C)[C@H]3CC[C@]12C` [7-alpha-OH-cholesterol], the “activation of pregnenolone esterification by sterol” value (from here on “activation … by sterol”) ([1]; ACAT1) was “least activation”.

For `CC(C)CCC[C@@H](C)[C@H]1CC[C@H]2[C@@H]3CC=C4C[C@H](O)CC[C@]4(C)[C@H]3CC[C@]12C` [Epi-cholesterol], the “maximal increase in fluorescence peak height with respect to unliganded ACAT1 protein” value (“maximal increase” for short) [2] was “much smaller than those caused by cholesterol”, the “concentration that caused half-maximal spectral change” value ([2]; ligand 10 to 600 μM) was “too small to derive a reliable binding curve” and the “activation … by sterol” value ([1]; ACAT1) was “much less efficiently than sitosterol”.

With `CC(C)CC[C@@H](O)[C@@H](C)[C@H]1CC[C@H]2[C@@H]3CC=C4C[C@@H](O)CC[C@]4(C)[C@H]3CC[C@]12C` [22R-hydroxy-cholesterol] the “activation … by sterol” value ([1]; ACAT1) was “least activation”.

In the case of `CC(C)CCC[C@@H](C)[C@H]1CC[C@H]2[C@@H]3CC=C4C[C@@H](O)CC[C@]4(C)[C@H]3CC[C@]12C` [cholesterol], the “maximal increase” value [2] is reported as “up to 35%”, the EC50 ([2]; ligand 10 to 600 μM, read-out: concentration that caused half-maximal spectral change) is reported as 35 µM and the “activation of pregnenolone esterification” value ([1]; ACAT1, cholesterol added to assay mixture) is reported as “more than 100 fold”. For the same compound, the “activation … by sterol” value ([1]; ACAT1) was “maximal activation”, the “activation of pregnenolone esterification” value ([3]; cholesterol added to assay mixture) was “more than 100 fold” and the “activation … by sterol” value [3] was “maximal activation”.

With `CC[C@H](CC[C@@H](C)[C@H]1CC[C@H]2[C@@H]3CC=C4C[C@@H](O)CC[C@]4(C)[C@H]3CC[C@]12C)C(C)C` [Sitosterol] the “activation … by sterol” value ([1]; ACAT1) was “not as efficiently as cholesterol” and the “activation … by sterol” value [3] was “only slightly activated”.

In the case of `C[C@]12CC[C@H](O)CC1=CC[C@@H]1[C@@H]2CC[C@]2(C)C(=O)CC[C@@H]12` [DHEA, dihydroepiandrosterone], the ACAT1 substrate activity ([1]; absence of cholesterol) is reported as “did not exhibit ACAT substrate activity”, the ACAT1 substrate activity ([1]; presence of excess cholesterol (0.32 mM)) is reported as “exhibited significant substrate activity” and the “apparent Km as ACAT1 substrate” value ([1]; with cholesterol present in vitro (0.32 mM)) is reported as “too high to be measurable”.

For `CCCCCCCC[C@H](SCCCCCC)C(=O)Nc1c(SC)cc(C)nc1SC` [CP113818], the “full-length human APP content” value ([4]; animal model for AD) is listed as “did not cause a reduction” and the “processing of APP” value ([4]; animal models for AD) is listed as “inhibit the processing of both human amyloid precursor protein (APP) and mouse APP”.

With `CCCCCCCCCCCCCCCCCC(=O)SCCNC(=O)CCNC(=O)[C@H](O)C(C)(C)COP(=O)(O)OP(=O)(O)OC[C@H]1O[C@@H](n2cnc3c(N)ncnc32)[C@H](O)[C@@H]1OP(=O)(O)O` [stearoyl-CoA] the “maximal increase” value [2] was 5% and the dissociation constant ([2]; simple bimolecular dissociation equilibrium, PRISM) was “too small to derive a reliable dissociation constant”.

In the case of `CC(C)[C@@H](C)/C=C/[C@@H](C)[C@H]1CC[C@H]2C3=CC=C4C[C@@H](O)CC[C@]4(C)C3=CC[C@]12C` [dehydroergosterol], the “activation … by sterol” value ([1]; ACAT1) is reported as “much less efficiently than sitosterol”.

With `CC(C)CCCC(C)C1CCC2C3CC=C4CC(O)CCC4(C)C3CCC12C` (single isomer, unassigned) [enantiomeric (ent-)cholesterol] the “activation … by sterol” value ([1]; ACAT1) was “much less efficiently than sitosterol”.
